test system: MGC-803; assay: Antiproliferative activity against human MGC-803 cells assessed as inhibition of cell growth incubated for 24 to 72 hrs by MTT assay; type: functional, cell-based

How did the IC50 turn out when `C=C1CC[C@@H]2[C@](C)(CO)[C@H](O)CC[C@@]2(C)[C@@H]1/C=C/C1=CC(=C/c2cc(OC)c(OC)c(OC)c2)/NC1=O` was run?
Its IC50 is 7.27 µM.

Which IC50 does the source give for `C=C1CC[C@@H]2[C@](C)(CO)[C@H](O)CC[C@@]2(C)[C@@H]1/C=C/C1=CC(=C/c2cccc(Cl)c2)/NC1=O` here?
Its IC50 is over 50 µM.

For `C=C1CC[C@@H]2[C@](C)(CO)[C@H](O)CC[C@@]2(C)[C@@H]1/C=C/C1=CC(=C/c2ccc(N(C)C)cc2)/NC1=O`, which IC50 is on record?
The IC50 was 18.1 µM.

Which IC50 does the source give for `C=C1CC[C@@H]2[C@](C)(CO)[C@H](O)CC[C@@]2(C)[C@@H]1/C=C/C(=C/C(=O)Cc1ccc(Cl)cc1)C(=O)N(C)C` here?
The IC50 was over 50 µM.

`C=C1CC[C@@H]2[C@](C)(CO)[C@H](O)CC[C@@]2(C)[C@@H]1/C=C/C1=CC(=C/c2ccc(Cl)cc2)/NC1=O` was tested. Which IC50 did it give?
Its IC50 is 6.05 µM.

`C=C1CC[C@@H]2[C@](C)(CO)[C@H](O)CC[C@@]2(C)[C@@H]1/C=C/C(=C/C(=O)Cc1ccc(Cl)cc1)C(=O)N1CCOCC1` was tested. Which IC50 did it give?
Its IC50 is over 50 µM.

How did the IC50 turn out when `C=C1CC[C@@H]2[C@](C)(CO)[C@H](O)CC[C@@]2(C)[C@@H]1/C=C/C(=C/C(=O)Cc1ccc(Cl)cc1)C(=O)N1CCNCC1` was run?
The IC50 was 37.8 µM.

`C=C1CC[C@@H]2[C@](C)(CO)[C@H](O)CC[C@@]2(C)[C@@H]1C/C=C1/C(=O)OC[C@H]1O` [ANDROGRAPHOLIDE] was tested. Which IC50 did it give?
The IC50 was 31.8 µM.

For `C=C1CC[C@@H]2[C@](C)(CO)[C@H](O)CC[C@@]2(C)[C@@H]1/C=C/C1=CC(=C\c2ccccc2)/NC1=O`, which IC50 is on record?
Its IC50 is 17.6 µM.

Which IC50 does the source give for `C=C1CC[C@@H]2[C@](C)(CO)[C@H](O)CC[C@@]2(C)[C@@H]1/C=C/C1=CC(=C/c2ccc(Cl)cc2Cl)/NC1=O` here?
Its IC50 is 8.52 µM.

How did the IC50 turn out when `C=C1CC[C@@H]2[C@](C)(CO)[C@H](O)CC[C@@]2(C)[C@@H]1/C=C/C(=C/C(=O)Cc1ccc(Cl)cc1)C(=O)N1CCN(C)CC1` was run?
Its IC50 is over 50 µM.

`C=C1CC[C@@H]2[C@](C)(CO)[C@H](O)CC[C@@]2(C)[C@@H]1/C=C/C(=C/C(=O)Cc1ccc(Cl)cc1)C(=O)N1CCCCC1` was tested. Which IC50 did it give?
The IC50 was over 50 µM.

How did the IC50 turn out when `C=C1CC[C@@H]2[C@](C)(CO)[C@H](O)CC[C@@]2(C)[C@@H]1/C=C/C1=CC(=C/c2ccc(F)cc2)/NC1=O` was run?
The IC50 was over 50 µM.

With `C=C1CC[C@@H]2[C@](C)(CO)[C@H](O)CC[C@@]2(C)[C@@H]1/C=C/C1=CC(=C/c2cccc3ccccc23)/NC1=O` as the compound, how does the IC50 read?
The IC50 was 1.34 µM.

`C=C1CC[C@@H]2[C@](C)(CO)[C@H](O)CC[C@@]2(C)[C@@H]1/C=C/C1=CC(=C/c2ccccc2)/NC1=O` was tested. Which IC50 did it give?
The IC50 was 9.56 µM.

`C=C1CC[C@@H]2[C@](C)(CO)[C@H](O)CC[C@@]2(C)[C@@H]1/C=C/C1=CC(=C/c2ccc(C(C)(C)C)cc2)/NC1=O` was tested. Which IC50 did it give?
The IC50 was 19.5 µM.

`C=C1CC[C@@H]2[C@](C)(CO)[C@H](O)CC[C@@]2(C)[C@@H]1/C=C/C1=CC(=C2CCCCC2)NC1=O` was tested. Which IC50 did it give?
Its IC50 is over 50 µM.

For `C=C1CC[C@@H]2[C@](C)(CO)[C@H](O)CC[C@@]2(C)[C@@H]1/C=C/C1=CC(=C/c2cccc(C)c2)/NC1=O`, which IC50 is on record?
Its IC50 is 4.56 µM.

`C=C1CC[C@@H]2[C@](C)(CO)[C@H](O)CC[C@@]2(C)[C@@H]1/C=C/C1=CC(=C\c2ccc(Cl)cc2)/NC1=O` was tested. Which IC50 did it give?
Its IC50 is 19.2 µM.

How did the IC50 turn out when `C=C1CC[C@@H]2[C@](C)(CO)[C@H](O)CC[C@@]2(C)[C@@H]1/C=C/C(=C/C(=O)Cc1ccc(Cl)cc1)C(=O)N1CCN(CC)CC1` was run?
The IC50 was over 50 µM.

For `C=C1CC[C@@H]2[C@](C)(CO)[C@H](O)CC[C@@]2(C)[C@@H]1/C=C/C1=CC(=C/c2ccccc2Cl)/NC1=O`, which IC50 is on record?
The IC50 was 1.6 µM.

Which IC50 does the source give for `C=C1CC[C@@H]2[C@](C)(CO)[C@H](O)CC[C@@]2(C)[C@@H]1/C=C/C1=CC(=C/C2CCCCC2)/NC1=O` here?
Its IC50 is 15.7 µM.

Which IC50 does the source give for `C=C1CC[C@@H]2[C@](C)(CO)[C@H](O)CC[C@@]2(C)[C@@H]1/C=C/C1=CC(=C/c2cccc(C)c2C)/NC1=O` here?
Its IC50 is 14.1 µM.

`C=C1CC[C@@H]2[C@](C)(CO)[C@H](O)CC[C@@]2(C)[C@@H]1/C=C/C1=CC(=C/c2ccc3ccccc3c2)/NC1=O` was tested. Which IC50 did it give?
Its IC50 is 2.43 µM.

With `C=C1CC[C@@H]2[C@](C)(CO)[C@H](O)CC[C@@]2(C)[C@@H]1/C=C/C1=CC(=C/c2cccnc2)/NC1=O` as the compound, how does the IC50 read?
Its IC50 is 12.3 µM.

With `C=C1CC[C@@H]2[C@](C)(CO)[C@H](O)CC[C@@]2(C)[C@@H]1/C=C/C(=C/C(=O)Cc1ccc(Cl)cc1)C(=O)N1CCN(C(=O)OC(C)(C)C)CC1` as the compound, how does the IC50 read?
The IC50 was 15.8 µM.

Which IC50 does the source give for `C=C1CC[C@@H]2[C@](C)(CO)[C@H](O)CC[C@@]2(C)[C@@H]1/C=C/C(=C/C(=O)Cc1ccc(Cl)cc1)C(=O)N1CCCC1` here?
Its IC50 is over 50 µM.

How did the IC50 turn out when `C=C1CC[C@@H]2[C@](C)(CO)[C@H](O)CC[C@@]2(C)[C@@H]1/C=C/C1=CC(=C/c2ccc(F)c(F)c2)/NC1=O` was run?
Its IC50 is over 50 µM.

With `C=C1CC[C@@H]2[C@](C)(CO)[C@H](O)CC[C@@]2(C)[C@@H]1/C=C/C1=CC(=C/c2ccc(Br)cc2)/NC1=O` as the compound, how does the IC50 read?
Its IC50 is 5.3 µM.

With `C=C1CC[C@@H]2[C@](C)(CO)[C@H](O)CC[C@@]2(C)[C@@H]1/C=C/C1=CC(=C(C)C)NC1=O` as the compound, how does the IC50 read?
The IC50 was over 50 µM.

`C=C1CC[C@@H]2[C@](C)(CO)[C@H](O)CC[C@@]2(C)[C@@H]1/C=C/C1=CC(=C\c2ccc(C)cc2)/NC1=O` was tested. Which IC50 did it give?
Its IC50 is 14.7 µM.

With `C=C1CC[C@@H]2[C@](C)(CO)[C@H](O)CC[C@@]2(C)[C@@H]1/C=C/C1=CC(=C/c2ccccc2C)/NC1=O` as the compound, how does the IC50 read?
Its IC50 is 1.76 µM.

`C=C1CC[C@@H]2[C@](C)(CO)[C@H](O)CC[C@@]2(C)[C@@H]1/C=C/C(=C/C(=O)Cc1ccc(Cl)cc1)C(=O)N1CCN(CCO)CC1` was tested. Which IC50 did it give?
The IC50 was over 50 µM.

For `C=C1CC[C@@H]2[C@](C)(CO)[C@H](O)CC[C@@]2(C)[C@@H]1/C=C/C1=CC(=C/c2ccc([N+](=O)[O-])c(Cl)c2)/NC1=O`, which IC50 is on record?
Its IC50 is over 50 µM.
